Data taken from US20150011423A1, “MEANS AND METHODS FOR ASSESSING KIDNEY TOXICITY” (BASF SE, priority 2011, published 2015).
Marks after values point to notes of the source that are not given here. Blank lines part the entries; values can stand above or below the molecule they belong to.

Test system: rats
Assay: 28-day repeated dose study in rats with mass spectrometry-based plasma metabolite profiling (GC-MS, LC-MS, SPE-LC-MS); treatment ratios versus control
Conditions: plasma; for Choline plasmalogen No 02 (putative), treatment ratio versus control / Lyso PE (C22:0) (putative), treatment ratio versus control / Lysophosphatidylcholine (C17:0), treatment ratio versus control / TAG (C42:9) (DAG-Fragment) (putative), treatment ratio versus control: Table 11b alpha 2 u globulin-nephropathy
[1] = female rats, day 28, high dose, Table 5a tubular necrosis
[2] = female rats, day 28, high dose, Table 5b tubular necrosis
[3] = female rats, day 14, high dose, Table 3a tubular defect
[4] = female rats, day 14, high dose, Table 3b tubular defect
[5] = female rats, day 28, high dose, Table 3a tubular defect
[6] = female rats, day 28, high dose, Table 3b tubular defect
[7] = male rats, day 14, high dose, Table 3c tubular defect
[8] = male rats, day 14, high dose, Table 3d tubular defect
[9] = male rats, day 28, high dose, Table 3c tubular defect
[10] = male rats, day 28, high dose, Table 3d tubular defect
[11] = male rats, day 7, high doses except for 1,1,2,2-tetrachloroethane
[12] = male rats, day 14, high doses except for 1,1,2,2-tetrachloroethane
[13] = male rats, day 28, high doses except for 1,1,2,2-tetrachloroethane
[14] = male rats, day 7, high dose, Table 2c glomerular-tubular defect
[15] = male rats, day 7, high dose, Table 2d glomerular-tubular defect
[16] = male rats, day 14, high dose, Table 2c glomerular-tubular defect
[17] = male rats, day 14, high dose, Table 2d glomerular-tubular defect
[18] = male rats, day 28, high dose, Table 2c glomerular-tubular defect
[19] = male rats, day 28, high dose, Table 2d glomerular-tubular defect

Description: A group of each 5 male and female rats was dosed once daily with the indicated compounds (see Table 9, below for compounds, applied doses and administration details) over 28 days.
Each dose group in the studies consisted of five rats per sex. Additional groups of each 5 male and female animals served as controls. Before starting the treatment period, animals, which were 62-64 days old when supplied, were acclimatized to the housing and environmental conditions for 7 days. All animals of the animal population were kept under the same constant temperature (20-24±3° C.) and the same constant humidity (30-70%). The animals of the animal population were fed ad libitum. The food to be used was essentially free of chemical or microbial contaminants. Drinking water was also offered ad libitum. […] The illumination period was 12 hours light followed by 12 hours darkness (12 hours light, from 6:00 to 18:00, and 12 hours darkness, from 18:00 to 6:00). […] The test substances (compounds in Table 9 were dosed and administered as described in the table above.
In the morning of day 7, 14, and 28, blood was taken from the retroorbital venous plexus from fasted anaesthetized animals. From each animal, 1 ml of blood was collected with EDTA as anticoagulant. The samples were centrifuged for generation of plasma. All plasma samples were covered with a N2 atmosphere and then stored at −80° C. until analysis.
For mass spectrometry-based metabolite profiling analyses plasma samples were extracted and a polar and a non-polar (lipid) fraction was obtained. For GC-MS analysis, the non-polar fraction was treated with methanol under acidic conditions to yield the fatty acid methyl esters. Both fractions were further derivatised with O-methyl-hydroxyamine hydrochloride and pyridine to convert Oxo-groups to O-methyloximes and subsequently with a silylating agent before analysis. In LC-MS analysis, both fractions were reconstituted in appropriate solvent mixtures. HPLC was performed by gradient elution on reversed phase separation columns.
Steroids and their metabolites were measured by online SPE-LC-MS (Solid phase extraction-LC-MS).
Following comprehensive analytical validation steps, the data for each analyte were normalized against data from pool samples. These samples were run in parallel through the whole process to account for process variability. The significance of treatment group values specific for sex, treatment duration and metabolite was determined by comparing means of the treated groups to the means of the respective untreated control groups using WELCH-test and quantified with treatment ratios versus control and p-values.

Molecule: C[C@@H]1[C@H](O)[C@@H](C)/C=C/C=C/C=C/C=C/C=C/C=C/C=C/[C@H](O[C@@H]2O[C@H](C)[C@@H](O)[C@H](N)[C@@H]2O)C[C@@H]2O[C@](O)(C[C@@H](O)C[C@@H](O)[C@H](O)CC[C@@H](O)C[C@@H](O)CC(=O)O[C@H]1C)C[C@H](O)[C@H]2C(=O)O [Amphotericin B]
Docosahexaenoic acid (C22:cis[4,7,10,13,16,19]6), treatment ratio versus control [1]: 1.32 * | Docosapentaenoic acid (C22:cis[7,10,13,16,19]5), treatment ratio versus control [1]: 1.23 * | Eicosanoic acid (C20:0), treatment ratio versus control [1]: 1.18 * | Glycerol, lipid fraction, treatment ratio versus control [1]: 1.31 * | Leucine, treatment ratio versus control [1]: 1.21 * | Phosphate (inorganic and organic phosphates), treatment ratio versus control [1]: 1.25 * | Hippuric acid, treatment ratio versus control [2]: 0.44 * | Lactate, treatment ratio versus control [2]: 0.68 *

Molecule: N.N.O=C([O-])C1(C(=O)[O-])CCC1.[Pt+2] [Carboplatin]
Creatine, treatment ratio versus control [3]: 1.22 * | Creatinine, treatment ratio versus control [3]: 0.85 | Galactose, lipid fraction, treatment ratio versus control [3]: 1.17 * | Glucuronic acid, treatment ratio versus control [3]: 1.36 | Glycerol-3-phosphate, polar fraction, treatment ratio versus control [3]: 1.66 * | Glycine, treatment ratio versus control [3]: 1.08 | Histidine, treatment ratio versus control [3]: 1.03 | Isoleucine, treatment ratio versus control [3]: 1.09 * | Leucine, treatment ratio versus control [3]: 1.13 * | Lysophosphatidylcholine (C18:1), treatment ratio versus control [3]: 0.98 | Phosphatidylcholine No 02, treatment ratio versus control [3]: 1.07 * | TAG No 05, treatment ratio versus control [3]: 1.9 * | Threonic acid, treatment ratio versus control [3]: 1.14 | Threonine, treatment ratio versus control [3]: 0.99 | Uracil, treatment ratio versus control [3]: 1.07 | Valine, treatment ratio versus control [3]: 1.07 * | Xylitol, treatment ratio versus control [3]: 0.83 | Cysteine, treatment ratio versus control [4]: 0.83 * | Glycerol, polar fraction, treatment ratio versus control [4]: 0.88^ | Hippuric acid, treatment ratio versus control [4]: 0.59^ | Indole-3-acetic acid, treatment ratio versus control [4]: 0.38 * | Spermidine, treatment ratio versus control [4]: 0.95^ | Sucrose, treatment ratio versus control [4]: 0.67 * | Creatine, treatment ratio versus control [5]: 1.41 * | Creatinine, treatment ratio versus control [5]: 1.59 * | Galactose, lipid fraction, treatment ratio versus control [5]: 0.84^ | Glucuronic acid, treatment ratio versus control [5]: 1.24 * | Glycerol-3-phosphate, polar fraction, treatment ratio versus control [5]: 2.2 * | Glycine, treatment ratio versus control [5]: 1.17 * | Histidine, treatment ratio versus control [5]: 1.3 * | Isoleucine, treatment ratio versus control [5]: 1.35 * | Leucine, treatment ratio versus control [5]: 1.38 * | Lysophosphatidylcholine (C18:1), treatment ratio versus control [5]: 1.12 * | Phosphatidylcholine No 02, treatment ratio versus control [5]: 0.97^ | TAG No 05, treatment ratio versus control [5]: 1.27 * | Threonic acid, treatment ratio versus control [5]: 1.23 * | Threonine, treatment ratio versus control [5]: 1.24 * | Uracil, treatment ratio versus control [5]: 1.37 * | Valine, treatment ratio versus control [5]: 1.25 * | Xylitol, treatment ratio versus control [5]: 1.56 * | Cysteine, treatment ratio versus control [6]: 0.67 | Glycerol, polar fraction, treatment ratio versus control [6]: 0.78 * | Hippuric acid, treatment ratio versus control [6]: 0.3 * | Indole-3-acetic acid, treatment ratio versus control [6]: 0.65 | Spermidine, treatment ratio versus control [6]: 0.69 * | Sucrose, treatment ratio versus control [6]: 0.61 | Allantoin, treatment ratio versus control [7]: 1.4 | Creatine, treatment ratio versus control [7]: 1.32 * | Glycerol-3-phosphate, polar fraction, treatment ratio versus control [7]: 1.59 * | Histidine, treatment ratio versus control [7]: 1.02 | Kynurenic acid, treatment ratio versus control [7]: 1.21 * | Nervonic acid (C24:cis[15]1), treatment ratio versus control [7]: 1.02 | Pantothenic acid, treatment ratio versus control [7]: 1.17 | Pseudouridine, treatment ratio versus control [7]: 1.33 * | Taurine, treatment ratio versus control [7]: 1.18 * | Urea, treatment ratio versus control [7]: 1.47 * | 16-Methylheptadecanoic acid, treatment ratio versus control [8]: 0.74 * | Linolenic acid (C18:cis[9,12,15]3), treatment ratio versus control [8]: 0.75 | Phosphatidylcholine No 02, treatment ratio versus control [8]: 0.87 * | Phosphatidylcholine No 04, treatment ratio versus control [8]: 0.74 * | TAG (C18:1, C18:2), treatment ratio versus control [8]: 0.79 * | Allantoin, treatment ratio versus control [9]: 1.24 * | Creatine, treatment ratio versus control [9]: 1.42 * | Glycerol-3-phosphate, polar fraction, treatment ratio versus control [9]: 1.61 * | Histidine, treatment ratio versus control [9]: 1.22 * | Kynurenic acid, treatment ratio versus control [9]: 1.7 | Nervonic acid (C24:cis[15]1), treatment ratio versus control [9]: 1.51 * | Pantothenic acid, treatment ratio versus control [9]: 1.47 * | Pseudouridine, treatment ratio versus control [9]: 1.11 * | Taurine, treatment ratio versus control [9]: 1.54 * | Urea, treatment ratio versus control [9]: 1.08 | 16-Methylheptadecanoic acid, treatment ratio versus control [10]: 0.51 * | Linolenic acid (C18:cis[9,12,15]3), treatment ratio versus control [10]: 0.7 * | Phosphatidylcholine No 02, treatment ratio versus control [10]: 0.91 * | Phosphatidylcholine No 04, treatment ratio versus control [10]: 0.78 | TAG (C18:1, C18:2), treatment ratio versus control [10]: 0.62 *

3-Hydroxyindole (ratio treated vs control) (m7: male rats, day 7): 1.92 | 4-Hydroxysphinganine (t18:0, Phytosphingosine), total (ratio treated vs control) (m7: male rats, day 7): 1.46 | Glucuronic acid (ratio treated vs control) (m7: male rats, day 7): 3.88 | Glutamate (ratio treated vs control) (m7: male rats, day 7): 1.57 | Nervonic acid (C24:cis[15]1) (ratio treated vs control) (m7: male rats, day 7): 1.60 | Oleic acid (C18:cis[9]1) (ratio treated vs control) (m7: male rats, day 7): 2.10 | Ornithine (ratio treated vs control) (m7: male rats, day 7): 1.12 | Pantothenic acid (ratio treated vs control) (m7: male rats, day 7): 2.59 | Phosphatidylcholine (C18:0, C18:1) (ratio treated vs control) (m7: male rats, day 7): 1.35 | Pseudouridine (ratio treated vs control) (m7: male rats, day 7): 1.23 | Sphingomyelin (d18:1, C16:0) (ratio treated vs control) (m7: male rats, day 7): 1.62 | Sphingomyelin (d18:2, C18:0) (ratio treated vs control) (m7: male rats, day 7): 1.35 | Xylitol (ratio treated vs control) (m7: male rats, day 7): 1.65 | dihomo-gamma-Linolenic acid (C20:cis[8,11,14]3) (ratio treated vs control) (m7: male rats, day 7): 2.42 | 3-Hydroxyindole (ratio treated vs control) (m14: male rats, day 14): 2.88 | 4-Hydroxysphinganine (t18:0, Phytosphingosine), total (ratio treated vs control) (m14: male rats, day 14): 1.34 | Glucuronic acid (ratio treated vs control) (m14: male rats, day 14): 3.87 | Glutamate (ratio treated vs control) (m14: male rats, day 14): 1.44 | Nervonic acid (C24:cis[15]1) (ratio treated vs control) (m14: male rats, day 14): 1.38 | Oleic acid (C18:cis[9]1) (ratio treated vs control) (m14: male rats, day 14): 2.37 | Ornithine (ratio treated vs control) (m14: male rats, day 14): 1.23 | Pantothenic acid (ratio treated vs control) (m14: male rats, day 14): 3.07 | Phosphatidylcholine (C18:0, C18:1) (ratio treated vs control) (m14: male rats, day 14): 1.34 | Pseudouridine (ratio treated vs control) (m14: male rats, day 14): 1.31 | Sphingomyelin (d18:1, C16:0) (ratio treated vs control) (m14: male rats, day 14): 1.59 | Sphingomyelin (d18:2, C18:0) (ratio treated vs control) (m14: male rats, day 14): 1.28 | Xylitol (ratio treated vs control) (m14: male rats, day 14): 1.33 | dihomo-gamma-Linolenic acid (C20:cis[8,11,14]3) (ratio treated vs control) (m14: male rats, day 14): 2.06 | 3-Hydroxyindole (ratio treated vs control) (m28: male rats, day 28): 2.30 | 4-Hydroxysphinganine (t18:0, Phytosphingosine), total (ratio treated vs control) (m28: male rats, day 28): 1.26 | Glucuronic acid (ratio treated vs control) (m28: male rats, day 28): 3.46 | Glutamate (ratio treated vs control) (m28: male rats, day 28): 1.74 | Nervonic acid (C24:cis[15]1) (ratio treated vs control) (m28: male rats, day 28): 1.22 | Oleic acid (C18:cis[9]1) (ratio treated vs control) (m28: male rats, day 28): 2.97 | Ornithine (ratio treated vs control) (m28: male rats, day 28): 1.23 | Pantothenic acid (ratio treated vs control) (m28: male rats, day 28): 3.03 | Phosphatidylcholine (C18:0, C18:1) (ratio treated vs control) (m28: male rats, day 28): 1.35 | Pseudouridine (ratio treated vs control) (m28: male rats, day 28): 1.28 | Sphingomyelin (d18:1, C16:0) (ratio treated vs control) (m28: male rats, day 28): 1.54 | Sphingomyelin (d18:2, C18:0) (ratio treated vs control) (m28: male rats, day 28): 1.23 | Xylitol (ratio treated vs control) (m28: male rats, day 28): 1.68 | dihomo-gamma-Linolenic acid (C20:cis[8,11,14]3) (ratio treated vs control) (m28: male rats, day 28): 2.77 | Choline plasmalogen No 02 (putative), treatment ratio versus control [11]: 0.72 | Lyso PE (C22:0) (putative), treatment ratio versus control [11]: 0.54 | Lysophosphatidylcholine (C17:0), treatment ratio versus control [11]: 0.72 | TAG (C42:9) (DAG-Fragment) (putative), treatment ratio versus control [11]: 0.67 | Choline plasmalogen No 02 (putative), treatment ratio versus control [12]: 0.73 | Lyso PE (C22:0) (putative), treatment ratio versus control [12]: 0.49 | Lysophosphatidylcholine (C17:0), treatment ratio versus control [12]: 0.73 | TAG (C42:9) (DAG-Fragment) (putative), treatment ratio versus control [12]: 0.64 | Choline plasmalogen No 02 (putative), treatment ratio versus control [13]: 0.81 | Lyso PE (C22:0) (putative), treatment ratio versus control [13]: 0.45 | Lysophosphatidylcholine (C17:0), treatment ratio versus control [13]: 0.80 | TAG (C42:9) (DAG-Fragment) (putative), treatment ratio versus control [13]: 0.76
Molecule: CC(C)CC(C)(C)C [2,2,4-Trimethylpentane, 2,2,4-trimethylpentane]

Molecule: Tricresyl phosphate
Creatine, treatment ratio versus control [14]: 1.16 * | Creatinine, treatment ratio versus control [14]: 0.77^ | Glycerol-3-phosphate, polar fraction, treatment ratio versus control [14]: 0.83 * | Lysophosphatidylcholine (C18:2), treatment ratio versus control [14]: 1.19^ | Threonic acid, treatment ratio versus control [14]: 1.32 * | 4-Hydroxy-3-methoxyphenylglycol (HMPG), treatment ratio versus control [15]: 0.95^ | Cysteine, treatment ratio versus control [15]: 0.44 * | Isopalmitic acid (C16:0), treatment ratio versus control [15]: 0.84 * | Metanephrine, treatment ratio versus control [15]: 0.43 * | Normetanephrine, treatment ratio versus control [15]: 0.74 * | Creatine, treatment ratio versus control [16]: 1.42 * | Creatinine, treatment ratio versus control [16]: 0.74^ | Glycerol-3-phosphate, polar fraction, treatment ratio versus control [16]: 0.89^ | Lysophosphatidylcholine (C18:2), treatment ratio versus control [16]: 1.27 * | Threonic acid, treatment ratio versus control [16]: 1.5 * | 4-Hydroxy-3-methoxyphenylglycol (HMPG), treatment ratio versus control [17]: 0.93 * | Cysteine, treatment ratio versus control [17]: 0.51 * | Isopalmitic acid (C16:0), treatment ratio versus control [17]: 0.76 * | Metanephrine, treatment ratio versus control [17]: 0.74 * | Normetanephrine, treatment ratio versus control [17]: 0.71 * | Creatine, treatment ratio versus control [18]: 1.11 * | Creatinine, treatment ratio versus control [18]: 0.78 * | Glycerol-3-phosphate, polar fraction, treatment ratio versus control [18]: 0.89^ | Lysophosphatidylcholine (C18:2), treatment ratio versus control [18]: 1.15 * | Threonic acid, treatment ratio versus control [18]: 1.53 * | 4-Hydroxy-3-methoxyphenylglycol (HMPG), treatment ratio versus control [19]: 0.83 * | Cysteine, treatment ratio versus control [19]: 0.55 * | Isopalmitic acid (C16:0), treatment ratio versus control [19]: 0.62 * | Metanephrine, treatment ratio versus control [19]: 0.76^ | Normetanephrine, treatment ratio versus control [19]: 1.03^
